Measurements: US5292737A, “N,N'-bis(sulfonamido)-2-amino-4-iminonaphthalen-1-ones and N,N'-bis(amido)-2-amino-4-iminonaphthalen-1-ones” (Sphinx Pharmaceuticals Corporation, priority 1992, dated 1994)

What was measured:
PKC isoenzyme γ = target: T1, PKC isoenzyme γ (Homo sapiens, UniProt P05129); assay: Protein kinase C inhibition assay, PKC isoenzyme γ; format: biochemical; details: read-out: IC50 PKC γ
T1 construct: made in house; host or cells: baculovirus-insect cell expression system
Method: (§1) A protein kinase C (PKC) assay is designed to duplicate the in vivo conditions required for protein kinase C function. Therefore, pH, salt and cofactor concentrations are similar to physiologic levels. Either lysine rich histone H1 (H1) or Myelin basic protein (Mbp) are used in the assay as the phosphorylation acceptor-protein because they are readily available and serve as good substrates for protein kinase C. Enzyme was prepared from baculovirus-insect cell expression systems.
(§2) In the screening assay, phosphatidylserine (PS) and DAG were co-sonicated to form unilamellar and multilamellar vesicles. The concentration of lipids in the assay were suboptimal to maximize the detection potential of the assay for inhibitors or activators. Potential effector compounds were added to the assay in dimethylsulfoxide at four concentrations to give final inhibitor concentrations of 1, 10, 50, and 150 μM, respectively.
(§3) The assay was started with the addition of enzyme and stopped after 10 min by the addition of 25% trichloroacetic acid (TCA) and 1.0 mg/ml bovine serum albumin (BSA). The radioactive histone product was retained and washed on glass fiber filters that allow the unreacted P-ATP to pass through. The amount of phosphorylation was determined by measuring radioactivity with a scintillation counter. Controls were included in every assay to measure background activity in the absence of enzyme, activity in the absence of lipids, and the maximum enzyme activity with saturating levels of the activator lipids.
(§4) Results of the protein kinase C assay are shown in Table 4 in columns labeled α, βII, γ, δ, ε, and .zeta. which represent various PKC isoenzymes. Results are show as IC50, which is the concentration of test compound needed to inhibit 50% of the protein kinase C activity in controls.

PKC isoenzyme δ = target: T2, PKC isoenzyme δ (Homo sapiens, UniProt Q05655); assay: Protein kinase C inhibition assay, PKC isoenzyme δ; format: biochemical; details: read-out: IC50 PKC δ
T2 construct: made in house; host or cells: baculovirus-insect cell expression system
T2 sequence (Q05655 whole entry): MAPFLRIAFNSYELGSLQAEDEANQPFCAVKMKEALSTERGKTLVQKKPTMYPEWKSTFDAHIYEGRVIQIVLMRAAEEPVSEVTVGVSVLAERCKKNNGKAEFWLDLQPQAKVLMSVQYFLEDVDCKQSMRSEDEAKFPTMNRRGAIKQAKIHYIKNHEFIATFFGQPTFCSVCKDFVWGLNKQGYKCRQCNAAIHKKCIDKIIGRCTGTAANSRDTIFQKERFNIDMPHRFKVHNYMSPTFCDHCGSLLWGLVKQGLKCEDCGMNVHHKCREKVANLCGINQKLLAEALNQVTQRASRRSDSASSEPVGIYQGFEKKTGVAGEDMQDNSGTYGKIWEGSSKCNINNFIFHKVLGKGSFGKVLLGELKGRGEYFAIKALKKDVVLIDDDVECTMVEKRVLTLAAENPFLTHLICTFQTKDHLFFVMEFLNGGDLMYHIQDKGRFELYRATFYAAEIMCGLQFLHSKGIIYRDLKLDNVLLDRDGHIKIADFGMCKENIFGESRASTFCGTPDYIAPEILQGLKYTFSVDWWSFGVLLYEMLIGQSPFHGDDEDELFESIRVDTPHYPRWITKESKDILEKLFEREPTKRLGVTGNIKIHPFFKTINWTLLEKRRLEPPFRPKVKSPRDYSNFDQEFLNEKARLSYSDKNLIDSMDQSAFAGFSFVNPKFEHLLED
Method: as §1, §2, §3, §4

[1] = target: cAMP dependent protein kinase (PKA); assay: cAMP Dependent Protein Kinase (PKA) Assay; format: biochemical; details: for IC50: catalytic subunit of PKA; for effect on PKA activity: result in words
Method: Compounds found to be inhibitors of protein kinase C were tested for inhibitory activity against cAMP dependent protein kinase (PKA). This enzyme, like protein kinase C, plays an important role in cell-cell communication and is activated by a second messenger, cAMP. Secondary screening against PKA is useful for ascertaining the selectivity of the compounds of the invention.
The catalytic subunit of PKA (Sigma Chemical Company, St. Louis, Mo.) was mixed with buffer before addition of the inhibitor in dimethylsulfoxide (DMSO). Potential inhibitor compounds were added to the assay in dimethylsulfoxide at two concentrations to give final inhibitor concentrations of 30 and 150 μM, respectively. The assay was started by the addition of ^32 P-ATP and the reaction was allowed to proceed for 10 min before stopping with 25% trichloroacetic acid (TCA) and 1.0 mg/ml bovine serum albumin (BSA). Phosphorylated protein was then isolated by filtration and the radioactivity was counted by a beta scintillation counter.

[2] = system: MCF-7 human breast tumor cell line; assay: Human Tumor Cell Growth Inhibition (3H-thymidine incorporation); format: cell-based
Method: MCF-7 a human breast tumor cell line was obtained from the National Cancer Institute, Frederick, Md. Tumor cells were trypsinized with 0.05% trypsin obtained from GIBCO (Grand Island Biological Co. Laboratories, Grand Island, N.Y.), counted with a hemacytometer and seeded at a concentration of 7,500 cells/well in a 96 well microtiter plate and allowed to attach to the surface overnight. To determine a concentration response, test agents were serially diluted an […] added at 2× final concentration to quadruplicate cultures to bring the total volume of each well to […]. The microtiter plate was then incubated at 37° C., 5% CO2 for 24 hrs with ^3 H-thymidine added at a concentration of 0.5 mCi/well in […] of 0.05% trypsin (GIBCO) was added to each well. Cells were checked microscopically to determine detachment from surfaces, and plates were harvested with a cell harvester (PHD, Cambridge Technology, Inc.). Filter paper corresponding to wells were placed in scintillation vials and counted to determine the amount ^3 H-thymidine incorporated by the cells. Counts per minute (CPM) of quadruplicate cultures were averaged and a percent of control calculated for each test agent concentration by the following formula: [formula]
The IC50 or concentration necessary to inhibit the proliferation of cells by 50% compared to control, of each test agent was determined by plotting % control vs log concentration for each dilution and then linear forecasting the 50% control value onto the X axis on a Quattro Pro computer program. Only regression values with a correlation coefficient greater then 0.9 were considered acceptable.

PKC isoenzyme ζ = target: T3, PKC isoenzyme ζ (Homo sapiens, UniProt Q05513); assay: Protein kinase C inhibition assay, PKC isoenzyme ζ; format: biochemical; details: read-out: IC50 PKC .zeta.
T3 construct: made in house; host or cells: baculovirus-insect cell expression system
T3 sequence (Q05513 1-592): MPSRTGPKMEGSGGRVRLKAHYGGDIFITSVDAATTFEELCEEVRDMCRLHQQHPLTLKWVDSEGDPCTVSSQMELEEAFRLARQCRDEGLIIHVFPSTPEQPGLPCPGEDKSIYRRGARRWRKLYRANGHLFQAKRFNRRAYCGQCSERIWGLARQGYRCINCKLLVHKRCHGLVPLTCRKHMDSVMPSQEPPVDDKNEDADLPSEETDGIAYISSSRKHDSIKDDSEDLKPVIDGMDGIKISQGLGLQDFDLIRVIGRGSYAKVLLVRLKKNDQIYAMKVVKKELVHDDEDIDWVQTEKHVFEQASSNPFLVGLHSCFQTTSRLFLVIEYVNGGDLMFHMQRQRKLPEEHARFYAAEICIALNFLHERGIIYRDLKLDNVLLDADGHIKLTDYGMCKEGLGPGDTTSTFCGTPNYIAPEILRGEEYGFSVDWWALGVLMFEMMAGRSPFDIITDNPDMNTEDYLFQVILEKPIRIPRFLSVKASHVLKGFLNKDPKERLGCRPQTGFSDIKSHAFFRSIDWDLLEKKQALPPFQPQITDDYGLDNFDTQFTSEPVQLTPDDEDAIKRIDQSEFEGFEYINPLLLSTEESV
Method: as §1, §2, §3, §4

[3] = Homo sapiens, MCF7, MCF-7, 24 hrs

IC50 (PKC isoenzyme γ)	IC50 (PKC isoenzyme δ)	IC50 [1]	effect on PKA activity [1]	IC50 ([2]; MCF-7, 24 hrs)	IC50 [2, 3]	IC50 (PKC isoenzyme ζ)	SMILES
–	34 µM	157 µM	–	–	–	–	Cc1cc(NS(=O)(=O)c2ccc(N=C3C=C(Nc4ccc(S(=O)(=O)Nc5cc(C)on5)cc4)C(=O)c4ccccc43)cc2)no1 [Compound 6a]
60 µM	–	–	–	1.2 µM	–	–	COc1cc(NS(=O)(=O)c2ccc(N=C3C=C(Nc4ccc(S(=O)(=O)Nc5cc(OC)cc(OC)c5)cc4)C(=O)c4ccccc43)cc2)cc(OC)c1 [Compound 6af]
24 µM	47 µM	> 150 µM	did not effect on PKA activity	17.9 µM	–	–	Cc1cc(NS(=O)(=O)c2ccc(N=C3C=C(Nc4ccc(S(=O)(=O)Nc5cc(C)nc(C)n5)cc4)C(=O)c4ccccc43)cc2)nc(C)n1 [Compound 6d]
12 µM	35 µM	45 µM	–	–	–	20 µM	Cc1nnc(NS(=O)(=O)c2ccc(N=C3C=C(Nc4ccc(S(=O)(=O)Nc5nnc(C)s5)cc4)C(=O)c4ccccc43)cc2)s1 [Compound 6e]
10 µM	120 µM	> 150 µM	did not effect on PKA activity	20 µM	–	–	O=C1C(Nc2ccc(S(=O)(=O)Nc3ccccn3)cc2)=CC(=Nc2ccc(S(=O)(=O)Nc3ccccn3)cc2)c2ccccc21 [Compound 6i]
9 µM	50 µM	89 µM	–	–	–	9 µM	O=C1C(Nc2ccc(S(=O)(=O)Nc3ccc(Cl)nn3)cc2)=CC(=Nc2ccc(S(=O)(=O)Nc3ccc(Cl)nn3)cc2)c2ccccc21 [Compound 6l]
44 µM	–	> 150 µM	did not effect on PKA activity	0.75 µM	–	–	O=C1C(Nc2ccc(S(=O)(=O)NCc3ccccn3)cc2)=CC(=Nc2ccc(S(=O)(=O)NCc3ccccn3)cc2)c2ccccc21 [Compound 6n]

The remaining lines, values behind:

SMILES	IC50 (PKC isoenzyme γ)	IC50 (PKC isoenzyme δ)	IC50 [1]	effect on PKA activity [1]	IC50 ([2]; MCF-7, 24 hrs)	IC50 [2, 3]	IC50 (PKC isoenzyme ζ)
Cc1noc(NS(=O)(=O)c2ccc(N=C3C=C(Nc4ccc(S(=O)(=O)Nc5onc(C)c5C)cc4)C(=O)c4ccccc43)cc2)c1C [Compound 3b]	25 µM	31 µM	> 150 µM	did not effect on PKA activity	–	–	–
Cc1cc(C)nc(NS(=O)(=O)c2ccc(N=C3C=C(Nc4ccc(S(=O)(=O)Nc5nc(C)cc(C)n5)cc4)C(=O)c4ccccc43)cc2)n1 [Compound 3c]	21 µM	72 µM	> 150 µM	did not effect on PKA activity	7.03 µM	–	–
Cc1cc(NS(=O)(=O)c2ccc(N=C3C=C(Nc4ccc(S(=O)(=O)Nc5cc(C)nc(C)n5)cc4)C(=O)c4ccccc43)cc2)nc(C)n1 [Compound 3d]	36 µM	95 µM	> 150 µM	did not effect on PKA activity	–	17.2 µM	–
Cc1nnc(NS(=O)(=O)c2ccc(N=C3C=C(Nc4ccc(S(=O)(=O)Nc5nnc(C)s5)cc4)C(=O)c4ccccc43)cc2)s1 [Compound 3e]	22 µM	43 µM	55 µM	–	–	–	–
Cc1ccnc(NS(=O)(=O)c2ccc(N=C3C=C(Nc4ccc(S(=O)(=O)Nc5nccc(C)n5)cc4)C(=O)c4ccccc43)cc2)n1 [Compound 3f]	29 µM	86 µM	48 µM	–	–	16.6 µM	–
COc1cc(NS(=O)(=O)c2ccc(N=C3C=C(Nc4ccc(S(=O)(=O)Nc5cc(OC)nc(OC)n5)cc4)C(=O)c4ccccc43)cc2)nc(OC)n1 [Compound 3g]	14 µM	40 µM	> 150 µM	did not effect on PKA activity	–	16.5 µM	–
COc1cnc(NS(=O)(=O)c2ccc(N=C3C=C(Nc4ccc(S(=O)(=O)Nc5ncc(OC)cn5)cc4)C(=O)c4ccccc43)cc2)nc1 [Compound 3h]	55 µM	58 µM	> 150 µM	did not effect on PKA activity	–	12.2 µM	–
O=C1C(Nc2ccc(S(=O)(=O)Nc3ccc(Cl)nn3)cc2)=CC(=Nc2ccc(S(=O)(=O)Nc3ccc(Cl)nn3)cc2)c2ccccc21 [Compound 3l]	7 µM	78 µM	98 µM	–	–	–	28 µM
